Measured values as given in the supplement of paper PMC10307832.

Assays:
Experiment in all cases: relative viability (nuclei count vs DMSO), 5 days (fraction); higher = more cells survive
IU1-47 + Dasatinib = compound: CC1=CC(=C(N1C2=CC=C(C=C2)Cl)C)C(=O)CN3CCCCC3 [IU1-47] + Cc1nc(Nc2ncc(C(=O)Nc3c(C)cccc3Cl)s2)cc(N2CCN(CCO)CC2)n1 [Dasatinib] (partner 0.075 µM)
Method in brief: (§1)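 The day after seeding in 1536-well plates, lung cancer cell lines were treated by pin tool with a single drug, or with a fixed anchor-drug dose together with five library-drug doses (not always all listed) in √10 steps. After 5 days, a combined fix-and-stain solution (final 0.05% Triton X-100, 1% formaldehyde, 1 ug/ml Hoechst) was added. Nuclei counted on 4× images gave relative viability as treated counts over vehicle counts, reported as the median of duplicate plates.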

FG-4592 + Alpelisib = compound: Cc1nc(C(=O)NCC(=O)O)c(O)c2ccc(Oc3ccccc3)cc12 [FG-4592] + Cc1nc(NC(=O)N2CCC[C@H]2C(N)=O)sc1-c1ccnc(C(C)(C)C(F)(F)F)c1 [Alpelisib] (partner 2 µM)
Method in brief: as §1

IU1-47 + Palbociclib = compound: CC1=CC(=C(N1C2=CC=C(C=C2)Cl)C)C(=O)CN3CCCCC3 [IU1-47] + CC(=O)c1c(C)c2cnc(Nc3ccc(N4CCNCC4)cn3)nc2n(C2CCCC2)c1=O [Palbociclib] (partner 0.5 µM)
Method in brief: as §1

IU1-47 + Decitabine = compound: CC1=CC(=C(N1C2=CC=C(C=C2)Cl)C)C(=O)CN3CCCCC3 [IU1-47] + Nc1ncn([C@H]2C[C@H](O)[C@@H](CO)O2)c(=O)n1 [Decitabine] (partner 2 µM)
Method in brief: as §1

UMC-11
relative viability (IU1-47 + Dasatinib; first compound 0.08 µM): 0.429
relative viability (IU1-47 + Dasatinib; first compound 0.253 µM): 0.423
relative viability (IU1-47 + Dasatinib; first compound 0.8 µM): 0.572
relative viability (IU1-47 + Dasatinib; first compound 2.53 µM): 0.388
relative viability (IU1-47 + Dasatinib; first compound 8 µM): 0.341
relative viability (FG-4592 + Alpelisib; first compound 0.08 µM): 1.03
relative viability (FG-4592 + Alpelisib; first compound 0.253 µM): 0.944
relative viability (FG-4592 + Alpelisib; first compound 0.8 µM): 1
relative viability (FG-4592 + Alpelisib; first compound 2.53 µM): 1.18
relative viability (FG-4592 + Alpelisib; first compound 8 µM): 0.998
relative viability (IU1-47 + Palbociclib; first compound 0.08 µM): 0.353
relative viability (IU1-47 + Palbociclib; first compound 0.253 µM): 0.339
relative viability (IU1-47 + Palbociclib; first compound 0.8 µM): 0.333
relative viability (IU1-47 + Palbociclib; first compound 2.53 µM): 0.322
relative viability (IU1-47 + Palbociclib; first compound 8 µM): 0.351
relative viability (IU1-47 + Decitabine; first compound 0.08 µM): 0.664
relative viability (IU1-47 + Decitabine; first compound 0.253 µM): 0.622
relative viability (IU1-47 + Decitabine; first compound 0.8 µM): 0.571
relative viability (IU1-47 + Decitabine; first compound 2.53 µM): 0.581
relative viability (IU1-47 + Decitabine; first compound 8 µM): 0.717
